Among the test systems are SN12C; SF-295; U-251; BT-549; HCC 2998; NCI-H226; MOLT-4; OVCAR-8; HOP-92; SK-OV-3; HCT-15; OVCAR-5; TK-10; 786-0; LOX IMVI; UACC-62; SW-620; M14; MDA-MB-435; MCF7.
Holding throughout (test): growth of human tumour cells (NCI), 48 h

The structures appear in SMILES notation.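 Growth conditions: 96-well plates. Treatment: test compound, 48 hours, 5 concentrations. Analysis: linear interpolation between bracketing concentrations; unreached endpoints set to highest concentration. Here, GI50 denotes the concentration required for 50% inhibition of growth.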 Calls of active or inactive are those of the source. Rule as the data show it: active = GI50 up to about 1.1 µM and inactive = higher. Some results are limits rather than exact numbers.

Take `O=C(O)C/C(=C\c1ccccc1)C(=O)O`: the GI50 in the test on SN12C, in the test with SF-295, in the test with U-251, in the test with BT-549, in the test with HCC 2998 and in the test with NCI-H226 was > 100 µM (inactive) throughout. Moreover, the GI50 with MOLT-4 was > 100 µM (inactive); in the test with OVCAR-8, > 100 µM (inactive); in the test on HOP-92 it was > 100 µM (inactive); with SK-OV-3 it was > 100 µM (inactive); with HCT-15, greater than 100 µM; in the test with OVCAR-5, > 100 µM (inactive). Besides, the GI50 in the test with TK-10, in the test on 786-0, in the test with LOX IMVI, in the test on UACC-62, with SW-620 and in the test on M14 was > 100 µM (inactive) throughout. Besides, the GI50 in the test with MDA-MB-435 and in the test with MCF7 was > 100 µM (inactive) each time.
As for `COc1ccc([C@H]2C=C(c3cc(F)c(Cl)cc3Cl)N=c3s/c(=C\c4ccc(-c5ccc(Cl)cc5Cl)o4)c(=O)n32)cc1`, the GI50 in the test with SN12C is 47.8 µM (inactive); with SF-295, 43.2 µM (inactive); in the test on U-251 it was 34.8 µM (inactive); with BT-549, 47.2 µM (inactive); in the test on HCC 2998 it was 20.1 µM (inactive); in the test with NCI-H226, 24.6 µM (inactive). In addition, the GI50 with MOLT-4 was 31.9 µM (inactive); in the test with OVCAR-8 it was 37.8 µM (inactive); in the test with HOP-92, 31.6 µM (inactive); in the test on SK-OV-3 it was 21.5 µM (inactive); in the test with HCT-15 it was 33.8 µM; in the test with OVCAR-5, 39.4 µM (inactive). In addition, the GI50 was 12.1 µM (inactive) in the test on TK-10; 42.4 µM (inactive) with 786-0; 38 µM (inactive) with LOX IMVI; 25.5 µM (inactive) with UACC-62; 51.1 µM (inactive) with SW-620; 55.3 µM (inactive) in the test on M14. Moreover, the GI50 is 30.5 µM (inactive) in the test with MDA-MB-435 and 26.9 µM (inactive) in the test on MCF7.
Turning to `O=C(c1ccccc1)c1ccc(-n2c3ccccc3c3ccc4c(c32)C(=O)C=CC4=O)cc1`, the GI50 with SN12C is 9.08 µM (inactive); in the test on SF-295, 15.7 µM (inactive); with U-251, 14.7 µM (inactive); in the test on BT-549, 20.3 µM (inactive); with HCC 2998 it was 11.2 µM (inactive); in the test with NCI-H226, 23.3 µM (inactive). Further, the GI50 with MOLT-4 was 1.75 µM (inactive); in the test with OVCAR-8, 7.24 µM (inactive); in the test with HOP-92 it was 3.48 µM (inactive); with SK-OV-3, 20.9 µM (inactive); in the test on HCT-15 it was 11.3 µM; in the test on OVCAR-5 it was 18.7 µM (inactive). Moreover, the GI50 with TK-10 is 12.7 µM (inactive); in the test with 786-0, 2.06 µM (inactive); in the test with LOX IMVI it was 3.41 µM (inactive); with UACC-62, 13.1 µM (inactive); with SW-620, 3.88 µM (inactive); in the test with M14 it was 9.2 µM (inactive). Also, the GI50 in the test on MDA-MB-435 was 6.01 µM (inactive); with MCF7 it was 3.21 µM (inactive).
On to `C=C1C(NC)CCC23CC24CCC2(C)C(C(C)=O)C(O)CC2(C)C4CCC13` (stereo not given), for which the GI50 with SN12C was 20.4 µM (inactive); in the test with SF-295 it was 28.4 µM (inactive); in the test with U-251, > 100 µM (inactive); with BT-549 it was 64.3 µM (inactive); in the test on HCC 2998, > 100 µM (inactive); in the test with NCI-H226, > 100 µM (inactive). In addition, the GI50 in the test with MOLT-4 was > 100 µM (inactive); in the test with OVCAR-8, > 100 µM (inactive); in the test with HOP-92, > 100 µM (inactive); in the test on SK-OV-3 it was 59.7 µM (inactive); in the test on HCT-15, greater than 100 µM; in the test with OVCAR-5 it was > 100 µM (inactive). The GI50 is > 100 µM (inactive) in the test with TK-10; 80.5 µM (inactive) in the test on 786-0; 63.7 µM (inactive) in the test on LOX IMVI; > 100 µM (inactive) in the test with UACC-62; > 100 µM (inactive) in the test on SW-620; > 100 µM (inactive) in the test on M14. The GI50 was > 100 µM (inactive) in the test with MDA-MB-435 and 70.5 µM (inactive) with MCF7.
Consider `CC[C@]12C=CCN3CC[C@@]4(c5cc(N=O)c(OC)cc5N(C)[C@H]4[C@@](O)(C(=O)OC)[C@@H]1OC(C)=O)[C@@H]32`, for which the GI50 with SN12C was 34.3 µM (inactive); in the test on SF-295, 99.5 µM (inactive); in the test with U-251, 16.7 µM (inactive); in the test with BT-549, > 100 µM (inactive); with HCC 2998 it was > 100 µM (inactive); in the test on NCI-H226 it was > 100 µM (inactive). Further, the GI50 in the test on MOLT-4 is 35.6 µM (inactive); in the test on OVCAR-8, > 100 µM (inactive); with HOP-92, > 100 µM (inactive); in the test on SK-OV-3, > 100 µM (inactive); with HCT-15 it was 86.3 µM; in the test with OVCAR-5, > 100 µM (inactive). Further, the GI50 in the test on TK-10 was > 100 µM (inactive); in the test with 786-0, 42.9 µM (inactive); in the test on LOX IMVI it was 34.1 µM (inactive); in the test with UACC-62, 51.4 µM (inactive); in the test on SW-620, 31.6 µM (inactive); in the test on M14 it was 89.5 µM (inactive). Besides, the results for the GI50 in the test on MDA-MB-435 and in the test with MCF7 were 25.1 µM (inactive) and 24.5 µM (inactive), respectively.
With `COc1cc2c3cc1Oc1c(OC)c(OC)cc4c1C(=NCC4)Cc1ccc(cc1)Oc1cc(ccc1O)C[C@H]3N(C)CC2`, the GI50 is 22.9 µM (inactive) in the test with SN12C; 19.4 µM (inactive) in the test on SF-295; 17.4 µM (inactive) with U-251; 12.5 µM (inactive) with BT-549; 13.4 µM (inactive) in the test on HCC 2998; 22.6 µM (inactive) in the test on NCI-H226. Further, the GI50 is 11.9 µM (inactive) in the test with MOLT-4; 16 µM (inactive) with OVCAR-8; 13.6 µM (inactive) with HOP-92; 48.6 µM (inactive) with SK-OV-3; 12.2 µM in the test on HCT-15; 45.6 µM (inactive) in the test with OVCAR-5. The GI50 in the test with TK-10 is 20.6 µM (inactive); in the test with 786-0, 10.4 µM (inactive); in the test with LOX IMVI, 12.6 µM (inactive); in the test on UACC-62 it was 16.7 µM (inactive); with SW-620, 17.3 µM (inactive); with M14, 16.3 µM (inactive). Besides, the GI50 in the test with MDA-MB-435 was 18.5 µM (inactive); in the test on MCF7, 25.8 µM (inactive).
`Cc1ccc2nc3sc(=O)sc3nc2c1` [CHINOMETHIONAT]: the GI50 in the test on SN12C was 15.5 µM (inactive); in the test on SF-295, 16.6 µM (inactive); in the test on U-251, 17.1 µM (inactive); in the test with BT-549, 15.3 µM (inactive); with HCC 2998, 16.2 µM (inactive); with NCI-H226 it was 14.3 µM (inactive). In addition, the GI50 with MOLT-4 is 15.2 µM (inactive); in the test with OVCAR-8, 15.3 µM (inactive); with HOP-92, 15.5 µM (inactive); in the test on SK-OV-3, 19.6 µM (inactive); in the test on HCT-15, 15.3 µM; in the test on OVCAR-5, 16.7 µM (inactive). In addition, the GI50 in the test on TK-10 is 16.4 µM (inactive); in the test on 786-0 it was 15.5 µM (inactive); with LOX IMVI it was 15 µM (inactive); in the test with UACC-62, 17.9 µM (inactive); in the test on SW-620, 24.1 µM (inactive); in the test on M14 it was 16.9 µM (inactive). Besides, the GI50 with MDA-MB-435 is 16.1 µM (inactive); with MCF7, 17.6 µM (inactive).

The values above are taken from ChEMBL document CHEMBL1201862, “PubChem BioAssay data set” (2004).
